The source of these data is US20050043180A1, “Optically active herbicidal (r)-phenoxypropionic acid-n-methyl-n-2-fluorophenyl amides” (priority 2001, published 2005).

The test system of experiment [1] is Barnyard grass (ECHCG, Echinochloa crus-galli Beauv. var. caudata Kitagawa). Nature of the experiment: Leaf treatment test, herbicidal activity on barnyard grass. It is filed as in vivo. As to the method:
(§1) Experimental Example 1: Leaf Treatment Test
Seeds of rice, wheat, barley, corn, cotton, barnyard grass, common sorgum, large crabgrass and fall panicum were seeded at a pot with a surface area of 600 cm^2. […], wettable powder prepared by mixing 1 part by weight of the active compound, 5 parts by weight of acetone and 1 part by weight of emulsifier and diluted with water was applied directly to the leaves in 2000 L per hectare. The concentration of the spray liquid was so chosen the particular amounts of the active compound desired. 14 days after the treatment, the degree of damage to the plants was rated in % damage in comparison to the development of untreated control.

Experiment [2] has as its system Rice (ORYSA, Oryza sativa L. cv. Dongjin). Nature of the experiment: Leaf treatment test, damage to rice. Format: in vivo. As to the method: as §1
Seeds of rice, wheat, barley, corn, cotton, barnyard grass, common sorgum, large crabgrass and fall panicum were seeded at a pot with a surface area of 600 cm^2. When barnyard grass grown in a green house kept at 20-30° C. had three leaves, wettable powder prepared by mixing 1 part by weight of the active compound, 5 parts by weight of acetone and 1 part by weight of emulsifier and diluted with water was applied directly to the leaves in 2000 L per hectare. The concentration of the spray liquid was so chosen the particular amounts of the active compound desired. 14 days after the treatment, the degree of damage to the plants was rated in % damage in comparison to the development of untreated control.

Where [3] appears, read: leaf treatment 2 g/ha, 14 days after treatment.
Where [4] appears, read: leaf treatment 4 g/ha, 14 days after treatment.
Where [5] appears, read: leaf treatment 8 g/ha, 14 days after treatment.
[6] abbreviates: leaf treatment 16 g/ha, 14 days after treatment.
The mark [7] stands for this setting: leaf treatment 32 g/ha, 14 days after treatment.
The mark [8] stands for this setting: leaf treatment 63 g/ha, 14 days after treatment.
Setting [9] is: leaf treatment 125 g/ha, 14 days after treatment.
The mark [10] stands for this setting: leaf treatment 250 g/ha, 14 days after treatment.
Where [11] appears, read: leaf treatment 500 g/ha, 14 days after treatment.
[12] abbreviates: leaf treatment 1000 g/ha, 14 days after treatment.
Where [13] appears, read: leaf treatment 2000 g/ha, 14 days after treatment.
Where [14] appears, read: leaf treatment 4000 g/ha, rated 14 days after treatment vs untreated control, 0% no effect, 100% total destruction.

`C[C@@H](Oc1ccc(Oc2nc3ccc(Cl)cc3o2)cc1)C(=O)N(C)c1ccccc1F` [(R)-compound, (R)-2-[4-(6-chloro-2-benzoxazolyloxy)-phenoxy]propionic acid-N-(2-fluorophenyl)-N-methyl amide]: the “% damage, Barnyard grass (4 leaves)” value in experiment [1] (setting [3]) is reported as 6.3%; in experiment [1] (setting [4]), 62.5%; in experiment [1] (setting [5]), 98.8%; in experiment [1] (setting [6]), 100%; in experiment [1] (setting [7]), 100%; in experiment [1] (setting [8]) it was 100%. Besides, the “% damage, Barnyard grass (4 leaves)” value in experiment [1] (setting [9]), in experiment [1] (setting [10]), in experiment [1] (setting [11]), in experiment [1] (setting [12]), in experiment [1] (setting [13]) and in experiment [1] (setting [14]) was 100% throughout. Moreover, the “% damage, Rice (4 leaves)” value in experiment [2] (setting [3]), in experiment [2] (setting [4]), in experiment [2] (setting [5]), in experiment [2] (setting [6]), in experiment [2] (setting [7]) and in experiment [2] (setting [8]) was 0.0% in each case. Further, the “% damage, Rice (4 leaves)” value in experiment [2] (setting [9]) was 0.0%; in experiment [2] (setting [10]), 0.0%; in experiment [2] (setting [11]) it was 0.0%; in experiment [2] (setting [12]) it was 2.5%; in experiment [2] (setting [13]), 11.3%; in experiment [2] (setting [14]), 22.5%.
With `CC(Oc1ccc(Oc2nc3ccc(Cl)cc3o2)cc1)C(=O)N(C)c1ccccc1F` (racemic) [R,S-racemic compound], the “% damage, Barnyard grass (4 leaves)” value in experiment [1] (setting [3]) was found to be 0.0%; in experiment [1] (setting [4]), 2.5%; in experiment [1] (setting [5]) it was 45.0%; in experiment [1] (setting [6]), 100%; in experiment [1] (setting [7]), 100%; in experiment [1] (setting [8]), 100%. Besides, the “% damage, Barnyard grass (4 leaves)” value in experiment [1] (setting [9]), in experiment [1] (setting [10]), in experiment [1] (setting [11]), in experiment [1] (setting [12]), in experiment [1] (setting [13]) and in experiment [1] (setting [14]) was 100% in each case. Further, the “% damage, Rice (4 leaves)” value in experiment [2] (setting [3]), in experiment [2] (setting [4]), in experiment [2] (setting [5]), in experiment [2] (setting [6]), in experiment [2] (setting [7]) and in experiment [2] (setting [8]) was 0.0% throughout. Also, the “% damage, Rice (4 leaves)” value in experiment [2] (setting [9]) came to 0.0%; in experiment [2] (setting [10]), 0.0%; in experiment [2] (setting [11]), 0.0%; in experiment [2] (setting [12]) it was 0.0%; in experiment [2] (setting [13]) it was 0.0%; in experiment [2] (setting [14]), 3.8%.
Consider `C[C@H](Oc1ccc(Oc2nc3ccc(Cl)cc3o2)cc1)C(=O)N(C)c1ccccc1F` [(S)-compound], for which the “% damage, Barnyard grass (4 leaves)” value in experiment [1] (setting [3]) was found to be 0.0%; in experiment [1] (setting [4]), 0.0%; in experiment [1] (setting [5]), 7.5%; in experiment [1] (setting [6]) it was 65.0%; in experiment [1] (setting [7]), 92.5%; in experiment [1] (setting [8]) it was 100%. In addition, the “% damage, Barnyard grass (4 leaves)” value in experiment [1] (setting [9]), in experiment [1] (setting [10]), in experiment [1] (setting [11]), in experiment [1] (setting [12]), in experiment [1] (setting [13]) and in experiment [1] (setting [14]) was 100% in each case. Besides, the “% damage, Rice (4 leaves)” value in experiment [2] (setting [3]), in experiment [2] (setting [4]), in experiment [2] (setting [5]), in experiment [2] (setting [6]), in experiment [2] (setting [7]) and in experiment [2] (setting [8]) was 0.0% in each case. For the same compound, the “% damage, Rice (4 leaves)” value in experiment [2] (setting [9]), in experiment [2] (setting [10]), in experiment [2] (setting [11]), in experiment [2] (setting [12]), in experiment [2] (setting [13]) and in experiment [2] (setting [14]) was 0.0% in each case.
